Experimental data as given in PMC8185074, “Anchor extension: a structure-guided approach to design cyclic peptides targeting enzyme active sites” (Nature Communications, 2021).
Peptide text beside a SMILES is read from it.

Legend:
HDAC3 = target: T1, HDAC3 (Homo sapiens, UniProt O15379); assay: HDAC3 inhibition, full IC50 measurement (Reaction Biology; fluorogenic p53 peptide RHKK(Ac)AMC); assay type: biochemical
T1 construct: purchased Reaction Biology Corporation (assay run by the CRO)
Method in brief: (§1)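 Test peptides were dispensed acoustically with enzyme in 50 mM Tris-HCl pH 8.0, 137 mM NaCl, 2.7 mM KCl, 1 mM MgCl2, 1 mg/ml BSA and 1% DMSO. After adding 50 μM RHKK(Ac)AMC, reactions ran 1 h at 30 °C, then developer was added.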

HDAC6 = target: T2, HDAC6 (Homo sapiens, UniProt Q9UBN7); assay: HDAC6 inhibition, full IC50 measurement (Reaction Biology; fluorogenic p53 peptide RHKK(Ac)AMC); assay type: biochemical
T2 construct: purchased Reaction Biology Corporation (assay run by the CRO)
T2 sequence (Q9UBN7 1-1215): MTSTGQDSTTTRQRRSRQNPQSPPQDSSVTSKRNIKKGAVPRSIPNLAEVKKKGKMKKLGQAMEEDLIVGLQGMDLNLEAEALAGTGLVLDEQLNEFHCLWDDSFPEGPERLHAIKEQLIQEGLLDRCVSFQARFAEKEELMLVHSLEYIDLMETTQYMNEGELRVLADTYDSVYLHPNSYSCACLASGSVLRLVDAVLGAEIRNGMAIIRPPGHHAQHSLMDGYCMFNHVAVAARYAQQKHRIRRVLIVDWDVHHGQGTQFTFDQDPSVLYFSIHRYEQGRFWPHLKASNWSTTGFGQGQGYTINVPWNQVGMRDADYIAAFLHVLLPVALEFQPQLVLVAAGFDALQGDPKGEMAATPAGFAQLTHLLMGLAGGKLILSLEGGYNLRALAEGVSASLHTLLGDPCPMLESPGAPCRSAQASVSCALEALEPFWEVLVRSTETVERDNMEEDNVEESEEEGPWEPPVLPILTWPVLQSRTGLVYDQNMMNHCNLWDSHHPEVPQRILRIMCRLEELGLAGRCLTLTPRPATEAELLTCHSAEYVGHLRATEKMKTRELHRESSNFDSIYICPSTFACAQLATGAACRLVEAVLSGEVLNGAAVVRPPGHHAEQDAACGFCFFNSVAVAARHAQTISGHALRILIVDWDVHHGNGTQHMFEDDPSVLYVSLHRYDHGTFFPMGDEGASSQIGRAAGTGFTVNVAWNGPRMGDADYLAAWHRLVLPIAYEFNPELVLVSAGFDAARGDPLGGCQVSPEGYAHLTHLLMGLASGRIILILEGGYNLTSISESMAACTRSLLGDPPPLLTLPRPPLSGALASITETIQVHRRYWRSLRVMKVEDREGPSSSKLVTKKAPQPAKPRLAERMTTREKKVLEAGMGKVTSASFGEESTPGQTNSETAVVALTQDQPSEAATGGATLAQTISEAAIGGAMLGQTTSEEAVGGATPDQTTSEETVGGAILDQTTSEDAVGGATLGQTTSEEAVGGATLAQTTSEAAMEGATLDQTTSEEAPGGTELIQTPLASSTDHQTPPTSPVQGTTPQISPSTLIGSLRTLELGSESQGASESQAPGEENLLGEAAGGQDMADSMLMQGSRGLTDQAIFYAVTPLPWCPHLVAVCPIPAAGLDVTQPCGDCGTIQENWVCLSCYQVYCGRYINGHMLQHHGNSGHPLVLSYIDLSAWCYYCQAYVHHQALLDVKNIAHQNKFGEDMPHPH
Method in brief: as §1

T1 sequence (O15379 whole entry): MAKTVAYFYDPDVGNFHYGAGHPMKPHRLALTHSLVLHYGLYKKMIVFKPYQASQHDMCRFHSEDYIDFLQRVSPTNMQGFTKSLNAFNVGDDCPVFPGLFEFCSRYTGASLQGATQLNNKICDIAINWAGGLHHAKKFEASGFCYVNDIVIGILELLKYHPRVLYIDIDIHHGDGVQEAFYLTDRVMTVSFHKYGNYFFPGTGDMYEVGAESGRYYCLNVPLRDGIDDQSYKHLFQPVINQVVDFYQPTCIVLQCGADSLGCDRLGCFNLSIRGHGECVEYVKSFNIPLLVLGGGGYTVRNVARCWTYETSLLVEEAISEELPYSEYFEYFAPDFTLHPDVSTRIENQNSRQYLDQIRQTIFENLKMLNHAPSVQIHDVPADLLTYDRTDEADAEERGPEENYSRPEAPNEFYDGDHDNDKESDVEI
T1 sequence (Q9Y618 395-489 partner limits assumed): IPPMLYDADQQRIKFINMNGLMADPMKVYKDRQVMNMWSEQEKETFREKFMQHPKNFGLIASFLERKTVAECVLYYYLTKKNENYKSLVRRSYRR

| SMILES | HDAC3 activity raw data (signal) (HDAC3; Conc. 1.00E-05 M, t1) | HDAC3 activity raw data (signal) (HDAC3; Conc. 1.00E-05 M, t2) | HDAC3 activity raw data (signal) (HDAC3; Conc. 1.11E-06 M, t1) | HDAC3 activity raw data (signal) (HDAC3; Conc. 1.11E-06 M, t2) | HDAC3 activity raw data (signal) (HDAC3; Conc. 1.23E-07 M, t1) | HDAC3 activity raw data (signal) (HDAC3; Conc. 1.23E-07 M, t2) | HDAC3 activity raw data (signal) (HDAC3; Conc. 1.37E-08 M, t1) | HDAC3 activity raw data (signal) (HDAC3; Conc. 1.37E-08 M, t2) | HDAC3 activity raw data (signal) (HDAC3; Conc. 1.52E-09 M, t1) | HDAC3 activity raw data (signal) (HDAC3; Conc. 1.52E-09 M, t2) | HDAC3 activity raw data (signal) (HDAC3; Conc. 3.33E-06 M, t1) | HDAC3 activity raw data (signal) (HDAC3; Conc. 3.33E-06 M, t2) | HDAC3 activity raw data (signal) (HDAC3; Conc. 3.70E-07 M, t1) | HDAC3 activity raw data (signal) (HDAC3; Conc. 3.70E-07 M, t2) | HDAC3 activity raw data (signal) (HDAC3; Conc. 4.12E-08 M, t1) | HDAC3 activity raw data (signal) (HDAC3; Conc. 4.12E-08 M, t2) | HDAC3 activity raw data (signal) (HDAC3; Conc. 4.57E-09 M, t1) | HDAC3 activity raw data (signal) (HDAC3; Conc. 4.57E-09 M, t2) | HDAC3 activity raw data (signal) (HDAC3; Conc. 5.08E-10 M, t1) | HDAC3 activity raw data (signal) (HDAC3; Conc. 5.08E-10 M, t2) | other results |
| --- | --- | --- | --- | --- | --- | --- | --- | --- | --- | --- | --- | --- | --- | --- | --- | --- | --- | --- | --- | --- | --- |
| CC(C)C[C@H]1NC(=O)[C@H](Cc2c[nH]c3ccccc23)NC(=O)[C@H](CCCCCS)NC(=O)[C@@H](Cc2ccc(O)cc2)NC(=O)[C@@H](C(C)C)NC(=O)[C@H](Cc2c[nH]cn2)NC(=O)CNC(=O)CNC(=O)[C@@H](CO)NC1=O [des2.2.0, SHA-Trp-dLeu-dSer-Gly-Gly-His-dVal-dTyr] (HELM PEPTIDE1{G.G.H.[dV].[dY].[O=C([C@H](CCCCCS)N[*:1])[*:2]].W.[dL].[dS]}$PEPTIDE1,PEPTIDE1,1:R1-9:R2$$$V2.0) | 556301 | 606764 | 913376 | 1016072 | 993017 | 1391457 | 1020645 | 1085089 | 1012899 | 1059045 | 841514 | 795799 | 980314 | 1161998 | 1033280 | 1094012 | 1032533 | 1050723 | 965053 | 1022182 | HDAC6 activity raw data (signal) (HDAC6; Conc. 1.00E-05 M, t1): 16305; HDAC6 activity raw data (signal) (HDAC6; Conc. 1.00E-05 M, t2): 24452; HDAC6 activity raw data (signal) (HDAC6; Conc. 1.11E-06 M, t1): 83235; HDAC6 activity raw data (signal) (HDAC6; Conc. 1.11E-06 M, t2): 80880; HDAC6 activity raw data (signal) (HDAC6; Conc. 1.23E-07 M, t1): 144589; HDAC6 activity raw data (signal) (HDAC6; Conc. 1.23E-07 M, t2): 161069; HDAC6 activity raw data (signal) (HDAC6; Conc. 1.37E-08 M, t1): 141422; HDAC6 activity raw data (signal) (HDAC6; Conc. 1.37E-08 M, t2): 164330; HDAC6 activity raw data (signal) (HDAC6; Conc. 1.52E-09 M, t1): 132716; HDAC6 activity raw data (signal) (HDAC6; Conc. 1.52E-09 M, t2): 164682; HDAC6 activity raw data (signal) (HDAC6; Conc. 3.33E-06 M, t1): 43855; HDAC6 activity raw data (signal) (HDAC6; Conc. 3.33E-06 M, t2): 31435; HDAC6 activity raw data (signal) (HDAC6; Conc. 3.70E-07 M, t1): 128192; HDAC6 activity raw data (signal) (HDAC6; Conc. 3.70E-07 M, t2): 121991; HDAC6 activity raw data (signal) (HDAC6; Conc. 4.12E-08 M, t1): 140481; HDAC6 activity raw data (signal) (HDAC6; Conc. 4.12E-08 M, t2): 177888; HDAC6 activity raw data (signal) (HDAC6; Conc. 4.57E-09 M, t1): 138901; HDAC6 activity raw data (signal) (HDAC6; Conc. 4.57E-09 M, t2): 160834; HDAC6 activity raw data (signal) (HDAC6; Conc. 5.08E-10 M, t1): 128639; HDAC6 activity raw data (signal) (HDAC6; Conc. 5.08E-10 M, t2): 162548 |
| N=C(N)NCCC[C@@H]1NC(=O)[C@@H](CCCNC(=N)N)NC(=O)[C@H]2CCCN2C(=O)[C@@H](Cc2c[nH]cn2)NC(=O)[C@H](Cc2ccc(O)cc2)NC(=O)[C@H](CCCCCS)NC(=O)[C@H](CCc2ccccc2)NC(=O)[C@@H](CO)NC(=O)[C@H](CC(=O)O)NC1=O [des3.3.1, SHA-Tyr-dHis-dPro-dArg-Arg-Asp-dSer-C27] (HELM PEPTIDE1{[O=C([C@H](CCCCCS)N[*:1])[*:2]].Y.[dH].[dP].[dR].R.D.[dS].[O=C([C@H](CCc1ccccc1)N[*:1])[*:2]]}$PEPTIDE1,PEPTIDE1,1:R1-9:R2$$$V2.0) | -3010 | -2975 | -3312 | 10427 | 21751 | 40450 | 79797 | 111435 | 143913 | 186935 | -4595 | 4931 | 9528 | 17560 | 66179 | 74103 | 114353 | 144441 | 223427 | 239829 | HDAC6 activity raw data (signal) (HDAC6; Conc. 1.00E-05 M, t1): 557; HDAC6 activity raw data (signal) (HDAC6; Conc. 1.00E-05 M, t2): -139; HDAC6 activity raw data (signal) (HDAC6; Conc. 1.11E-06 M, t1): 10535; HDAC6 activity raw data (signal) (HDAC6; Conc. 1.11E-06 M, t2): 12694; HDAC6 activity raw data (signal) (HDAC6; Conc. 1.23E-07 M, t1): 31520; HDAC6 activity raw data (signal) (HDAC6; Conc. 1.23E-07 M, t2): 38979; HDAC6 activity raw data (signal) (HDAC6; Conc. 1.37E-08 M, t1): 82998; HDAC6 activity raw data (signal) (HDAC6; Conc. 1.37E-08 M, t2): 93685; HDAC6 activity raw data (signal) (HDAC6; Conc. 1.52E-09 M, t1): 115704; HDAC6 activity raw data (signal) (HDAC6; Conc. 1.52E-09 M, t2): 134545; HDAC6 activity raw data (signal) (HDAC6; Conc. 3.33E-06 M, t1): 4544; HDAC6 activity raw data (signal) (HDAC6; Conc. 3.33E-06 M, t2): 5827; HDAC6 activity raw data (signal) (HDAC6; Conc. 3.70E-07 M, t1): 20428; HDAC6 activity raw data (signal) (HDAC6; Conc. 3.70E-07 M, t2): 19976; HDAC6 activity raw data (signal) (HDAC6; Conc. 4.12E-08 M, t1): 50772; HDAC6 activity raw data (signal) (HDAC6; Conc. 4.12E-08 M, t2): 68185; HDAC6 activity raw data (signal) (HDAC6; Conc. 4.57E-09 M, t1): 115536; HDAC6 activity raw data (signal) (HDAC6; Conc. 4.57E-09 M, t2): 120171; HDAC6 activity raw data (signal) (HDAC6; Conc. 5.08E-10 M, t1): 151999; HDAC6 activity raw data (signal) (HDAC6; Conc. 5.08E-10 M, t2): 154121 |
